In PubChem BioAssay AID1918946 (Molecular Pharmacology Branch, DTP, NCI, 2023) one finds viability, T/C, outcome and IC50 data, which are given here for 6 compounds.

As a reminder, the viability, T/C is the ratio of treated to control. For orientation: IC50 means the concentration that gives 50% inhibition.

The test system of this test is 885512-296-R-J2-PDC complex spheroid viability. Kind of test: Anticancer human tumor 885512-296-R-J2-PDC patient-derived breast carcinoma cell line growth inhibition. As to conditions: for viability, T/C: stronger effect = lower value. The text has this:
Multicellular complex tumor spheroid response to LSD1 Inhibitor Iadademstat in combination with a variety of drugs and investigational agents in selected tumor cell lines
The current study was undertaken to assess response to LSD1 inhibitors in combination with standard-of-care drugs and investigational agents in solid tumor complex spheroid models as well as in the K-562 leukemia. Complex spheroids include a stromal component modeled by human endothelial cells (HUVEC) and fibroblasts modeled by human mesenchymal stem cells (MSCs). The concentration ranges selected for each drug and investigational agent were based upon clinically achievable concentrations if the clinical Cmax of the agent was known.
Compounds. The drugs and investigational agents used in this study are listed on Table 1. All of the agents used, including staurosporine (NSC755774) and gemcitabine (NSC613327), were obtained from the Developmental Therapeutics Program, NCI. FDA-approved anticancer drugs are available from the NCI at http://dtp.nci.nih.gov/branches/dscb/oncology_drugset_explanation.html. Drugs and investigational agents were >95% pure by proton nuclear magnetic resonance (NMR) and liquid chromatography/mass spectrometry (LC/MS). Stock solutions were prepared at 400x in DMSO, stored at -70 degrees C, and diluted in fresh medium prior to their use. The final concentration of DMSO in cell culture wells never exceeded 0.25% (v/v). The FDA-approved anticancer drug set is available from the Developmental Therapeutics Program at https://dtp.cancer.gov/organization/dscb/obtaining/available_plates.htm. All drugs and investigational agents were tested over a range starting from a high concentration at or near the clinical Cmax and decreasing in half-log increments. If the clinical Cmax for an agent had not been determined, the highest concentration tested was 10 microM.
Cell Lines. The patient-derived cancer cell (PDC) lines: 292921-168-R-J2-PDC, K24384-001-R-PDC, and 521955-158-R2-J5-PDC pancreatic carcinomas, 556581-035-R-J1 ovarian carcinoma, 324938-238-R-J1-PDC, 855422-203-R-J1-PDC and 883617-216-R-J1-PDC urothelial bladder carcinomas, 743489-274-T-PDC renal cell carcinoma, 138582-R-J1 Merkel cell tumor, K60290-347-R-J1 and K57222-313-R-J1-PDC glioblastomas, 653999-131-R-J2-PDC, LG0703-F948-PDC, and 349418-098-R-PDC non-small cell lung carcinomas, 885512-296-R-J2-PDC, 171881-019-R-J1-PDC breast carcinomas and 186277-243-T-J2-PDC and 233499-124-R-J2-PDC colon carcinomas were obtained from the NCI Patient-Derived Models Repository (PDMR, https://pdmr.cancer.gov). The established cell lines NCI/ADR-RES (RRID:CVCL_14520 and OVCAR-5 (RRID:CVCL_1628) ovarian carcinomas, 786-O (RRID:CVCL_1051) and A498 (RRID:CVCL_A498) renal cell carcinoma, NCI-H211 (ATCC, cat. CRL-5824; RRID:CVCL_1529), NCI-H196 (ATCC, cat. CRL-5823, RRID:CVCL_1509), SW 1271 (ATCC, cat. CRL-2177, RRID:CVCL_1716) and NCI-H1876 (ATCC, cat. CRL-5902, RRID:CVCL_1503) small cell lung carcinomas, MDA-MB-231 (RRID:CVCL_0062) and MDA-MB-468 (RRID:CVCL_0419)breast carcinomas (10-12). Pooled donor human umbilical vein endothelial cells (HUVEC, Lonza, cat. CC-2519) and human mesenchymal stem cells (hMSC, Lonza, cat. PT-2501) were purchased from Lonza (Walkersville, MD).
Cell Culture. All cells were maintained in an incubator at 37 degrees C and 5% CO2 with 95% humidity. The PDC lines were cultured according to standard operating procedures established by the NCI PDMR (https://pdmr.cancer.gov). Briefly all PDCs were thawed and cultured in Matrigel-coated flasks prepared with a working solution of 1X Ham's F-12 nutrient mix, without supplementation (Invitrogen, Waltham, MA, cat. 11765054), 100 U/mL penicillin-streptomycin (Invitrogen, cat. 15140122), and 2.5% Matrigel (Corning Inc., Corning, NY, cat. 354248) for the first three passages. […]

“And” between values parts separate entries of the source, which are not always exact repeats. Equal entries are not always repeated. The source made the active and inactive calls. Rule for the calls: active = viability on the fitted dose curve at most 10% of control; inactive = the rest.
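Throughout, for IC50: spheroids exposed to agents for 7 days before viability read.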
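Throughout, for viability, T/C: spheroids exposed to agents for 7 days before viability read.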

On to `CC(C)c1c(-c2ccccc2)nc2c(C#N)c[nH]n2c1=O`, for which the viability, T/C reads like this: (compound 0.0316 µM) 90.7% and 86%; (compound 0.1 µM) 106% and 89.1%; (compound 0.316 µM) 86.7% and 80.9%; (compound 1 µM) 99.3% and 81%; (compound 3.16 µM) 92.9% and 87.5%; (compound 10 µM) 57%. The result (compound 10 µM) was active. In addition, the half-maximal inhibitory concentration (IC50) (curve of compound) is 4.13 µM and > 10 µM.
As to `CC1COCCN1c1cc(C2(S(C)(=N)=O)CC2)nc(-c2ccnc3[nH]ccc23)n1` (stereo unspecified), the viability, T/C reads like this: (compound 0.0316 µM) 89.7% and 84.5%; (compound 0.1 µM) 69.7% and 90.6%; (compound 0.316 µM) 14.4% and 49.3%; (compound 1 µM) 7.6% and 9.02%; (compound 3.16 µM) 7.26% and 2.77%; (compound 10 µM) 7.13% and 1.85%. For the same compound, the IC50 (curve of compound) is 0.151 µM and 0.317 µM.
As for `COc1ccc([C@@H](O)c2cc(-c3ncnc4cc(N5CCOCC5)ccc34)c(F)cc2Cl)nn1`, the viability, T/C is 83.8% and 95.7% (compound 0.0316 µM); 96.8% and 82.8% (compound 0.1 µM); 81.9% and 61.3% (compound 0.316 µM); 52.8% and 50.3% (compound 1 µM); 16.6% and 37.4% (compound 3.16 µM); 10.3% and 9.6% (compound 10 µM). Further, the IC50 (curve of compound) is 1.08 µM and 0.98 µM.
In the case of `NC1CC1c1ccc(-c2cccc(O)c2)cc1` (stereo unspecified), for the setting “compound 0.1 µM”, the viability, T/C was 133%. For the same compound, where the note is “compound alone, run of 02/01/2022”, the 50% inhibitory concentration (IC50) was > 10 µM.
Regarding `NC1CCC(NC2CC2c2ccccc2)CC1` (stereo unspecified), under “compound 0.316 µM”, the viability, T/C is 121% (2×) and 120%. Besides, for the setting “compound alone, run of 01/24/2022”, the half-inhibitory concentration (IC50) was > 10 µM.
Take `Nc1ncn(C2CC(O)C(CO)O2)c(=O)n1` (stereo unspecified) + NC1CC1c1ccc(-c2cccc(O)c2)cc1: the 50% inhibitory concentration (IC50) by setting is: (curve of first compound, second compound 0.1 µM) 0.0779 µM; (curve of first compound, second compound 0.316 µM) 0.0725 µM; (curve of first compound, second compound 1 µM) 0.0861 µM; (curve of first compound, second compound 3.16 µM) 0.0724 µM; (curve of first compound, second compound 10 µM) 0.0464 µM. Further, the viability, T/C reads like this: (second compound 0.1 µM, first compound 0.00316 µM) 116%; (second compound 0.1 µM, first compound 0.01 µM) 106%; (second compound 0.1 µM, first compound 0.0316 µM) 79%; (second compound 0.1 µM, first compound 0.1 µM) 41.6%; (second compound 0.1 µM, first compound 0.316 µM) 21.4%; (second compound 0.1 µM, first compound 1 µM) 13.3%. In addition, the viability, T/C (second compound 0.316 µM, first compound 0.00316 µM) was 106%; the viability, T/C (second compound 0.316 µM, first compound 0.01 µM) is 112%; the viability, T/C (second compound 0.316 µM, first compound 0.0316 µM) was 70.5%; the viability, T/C (second compound 0.316 µM, first compound 0.1 µM) was 43.1%; the viability, T/C (second compound 0.316 µM, first compound 0.316 µM) was 23.4%; the viability, T/C (second compound 0.316 µM, first compound 1 µM) is 15.9%. The viability, T/C is 107% (second compound 1 µM, first compound 0.00316 µM); 99.4% (second compound 1 µM, first compound 0.01 µM); 81.2% (second compound 1 µM, first compound 0.0316 µM); 44.5% (second compound 1 µM, first compound 0.1 µM); 22.9% (second compound 1 µM, first compound 0.316 µM); 13.4% (second compound 1 µM, first compound 1 µM). Also, the viability, T/C (second compound 3.16 µM, first compound 0.00316 µM) is 95.5%; the viability, T/C (second compound 3.16 µM, first compound 0.01 µM) was 103%; the viability, T/C (second compound 3.16 µM, first compound 0.0316 µM) is 73.1%; the viability, T/C (second compound 3.16 µM, first compound 0.1 µM) was 40.6%; the viability, T/C (second compound 3.16 µM, first compound 0.316 µM) is 21.7%; the viability, T/C (second compound 3.16 µM, first compound 1 µM) is 13.4%. For the same compound, the viability, T/C is 72% (second compound 10 µM, first compound 0.00316 µM); 69.5% (second compound 10 µM, first compound 0.01 µM); 57.5% (second compound 10 µM, first compound 0.0316 µM); 34.6% (second compound 10 µM, first compound 0.1 µM); 18.3% (second compound 10 µM, first compound 0.316 µM); 11.4% (second compound 10 µM, first compound 1 µM).
